These results are taken from PMC9655899, “Inhibition of Netosis with PAD Inhibitor Attenuates Endotoxin Shock Induced Systemic Inflammation” (International Journal of Molecular Sciences, 2022).

Assay type in all cases: biochemical
The target in one test is T1, PAD2 (Homo sapiens, UniProt Q9Y2J8).
T1 construct: gene PADI2
Put plainly: PAD enzyme activity assay with purchased human PAD2 (BAEE colorimetric assay described for PAD4).

Another test addresses T2, PAD3 (Homo sapiens, UniProt Q9ULW8).
T2 construct: gene PADI3
T2 sequence (Q9ULW8 1-664): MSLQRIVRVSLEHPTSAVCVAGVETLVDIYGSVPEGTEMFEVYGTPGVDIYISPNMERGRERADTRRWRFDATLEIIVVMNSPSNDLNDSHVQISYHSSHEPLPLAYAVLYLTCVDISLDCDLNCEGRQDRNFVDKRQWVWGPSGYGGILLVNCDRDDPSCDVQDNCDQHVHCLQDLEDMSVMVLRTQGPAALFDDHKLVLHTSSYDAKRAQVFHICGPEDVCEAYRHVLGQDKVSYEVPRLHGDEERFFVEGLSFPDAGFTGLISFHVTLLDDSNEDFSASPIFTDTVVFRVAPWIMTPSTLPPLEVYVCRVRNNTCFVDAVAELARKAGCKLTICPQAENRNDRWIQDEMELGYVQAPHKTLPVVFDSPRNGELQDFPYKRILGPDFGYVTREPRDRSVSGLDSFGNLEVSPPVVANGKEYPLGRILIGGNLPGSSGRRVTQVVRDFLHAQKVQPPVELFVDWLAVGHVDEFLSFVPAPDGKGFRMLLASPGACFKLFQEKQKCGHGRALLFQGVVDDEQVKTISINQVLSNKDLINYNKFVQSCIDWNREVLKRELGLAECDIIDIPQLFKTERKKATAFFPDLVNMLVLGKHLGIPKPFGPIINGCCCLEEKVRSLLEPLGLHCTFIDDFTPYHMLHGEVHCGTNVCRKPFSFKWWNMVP
Put plainly: PAD enzyme activity assay with purchased human PAD3 (BAEE colorimetric assay described for PAD4).

The target in the next test is T3, mouse PAD4 (Mus musculus, UniProt Q9Z183).
T3 construct: gene Padi4
T3 sequence (Q9Z183 whole entry): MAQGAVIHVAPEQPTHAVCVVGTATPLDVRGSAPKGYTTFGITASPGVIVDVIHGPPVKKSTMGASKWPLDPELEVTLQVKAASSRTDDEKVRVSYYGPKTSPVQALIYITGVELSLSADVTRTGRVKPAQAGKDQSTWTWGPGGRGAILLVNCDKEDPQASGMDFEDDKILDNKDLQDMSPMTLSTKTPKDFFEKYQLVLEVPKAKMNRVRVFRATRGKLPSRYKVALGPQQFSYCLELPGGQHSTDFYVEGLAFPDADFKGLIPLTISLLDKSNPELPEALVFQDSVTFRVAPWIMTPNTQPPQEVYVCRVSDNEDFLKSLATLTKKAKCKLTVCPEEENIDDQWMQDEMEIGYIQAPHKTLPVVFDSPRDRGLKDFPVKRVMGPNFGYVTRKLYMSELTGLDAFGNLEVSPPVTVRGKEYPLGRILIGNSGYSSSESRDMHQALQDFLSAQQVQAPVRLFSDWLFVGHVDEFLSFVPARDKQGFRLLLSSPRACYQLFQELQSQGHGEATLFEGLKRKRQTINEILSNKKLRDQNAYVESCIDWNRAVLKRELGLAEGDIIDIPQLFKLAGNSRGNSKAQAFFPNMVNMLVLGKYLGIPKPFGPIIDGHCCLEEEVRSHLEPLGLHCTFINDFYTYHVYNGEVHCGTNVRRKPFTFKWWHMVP
Put plainly: BAEE citrullination colorimetric assay (diacetyl monoxime, A465) with purchased enzyme, […] min preincubation.

The target in a further test is T4, PAD1 (Homo sapiens, UniProt Q9ULC6).
T4 construct: gene PADI1
T4 sequence (Q9ULC6 1-663): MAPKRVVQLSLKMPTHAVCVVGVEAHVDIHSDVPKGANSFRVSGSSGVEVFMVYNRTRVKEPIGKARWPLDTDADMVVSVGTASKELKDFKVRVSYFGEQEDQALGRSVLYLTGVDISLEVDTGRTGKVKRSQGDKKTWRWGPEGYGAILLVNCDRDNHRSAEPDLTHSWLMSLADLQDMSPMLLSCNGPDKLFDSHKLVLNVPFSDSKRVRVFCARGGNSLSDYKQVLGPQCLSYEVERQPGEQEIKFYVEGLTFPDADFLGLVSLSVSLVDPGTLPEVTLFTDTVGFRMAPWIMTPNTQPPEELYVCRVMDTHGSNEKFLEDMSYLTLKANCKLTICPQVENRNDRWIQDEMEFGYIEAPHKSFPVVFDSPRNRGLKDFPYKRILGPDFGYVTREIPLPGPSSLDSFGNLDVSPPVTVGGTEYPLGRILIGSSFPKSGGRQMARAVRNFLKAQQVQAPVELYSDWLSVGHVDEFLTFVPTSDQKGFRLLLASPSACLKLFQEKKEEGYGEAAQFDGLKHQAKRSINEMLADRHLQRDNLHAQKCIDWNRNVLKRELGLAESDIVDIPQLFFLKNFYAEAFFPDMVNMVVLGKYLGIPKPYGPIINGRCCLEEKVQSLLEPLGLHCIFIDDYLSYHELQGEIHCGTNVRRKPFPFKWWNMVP
Put plainly: PAD enzyme activity assay with purchased human PAD1 (BAEE colorimetric assay described for PAD4).

For a further test, the target named is T5, human PAD4 (Homo sapiens, UniProt Q9UM07).
T5 construct: gene PADI4
T5 sequence (Q9UM07 whole entry): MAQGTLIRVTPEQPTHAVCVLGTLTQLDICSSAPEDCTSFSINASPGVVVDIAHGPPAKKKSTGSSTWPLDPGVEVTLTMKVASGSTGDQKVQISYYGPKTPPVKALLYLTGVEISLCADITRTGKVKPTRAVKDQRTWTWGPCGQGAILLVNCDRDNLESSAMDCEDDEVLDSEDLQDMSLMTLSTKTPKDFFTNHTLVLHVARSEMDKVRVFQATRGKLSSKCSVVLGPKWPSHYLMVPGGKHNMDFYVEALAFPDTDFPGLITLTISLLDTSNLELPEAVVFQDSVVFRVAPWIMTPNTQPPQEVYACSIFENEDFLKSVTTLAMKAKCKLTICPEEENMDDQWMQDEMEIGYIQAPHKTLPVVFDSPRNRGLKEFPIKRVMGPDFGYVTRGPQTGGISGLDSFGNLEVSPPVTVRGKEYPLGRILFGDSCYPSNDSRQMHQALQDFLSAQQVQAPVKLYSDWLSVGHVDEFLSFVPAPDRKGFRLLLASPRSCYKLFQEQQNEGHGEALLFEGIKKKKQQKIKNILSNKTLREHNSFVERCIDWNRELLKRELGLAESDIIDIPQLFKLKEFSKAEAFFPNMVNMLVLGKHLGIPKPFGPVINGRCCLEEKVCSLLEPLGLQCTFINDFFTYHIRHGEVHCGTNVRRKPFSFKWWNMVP
Put plainly: BAEE citrullination colorimetric assay (diacetyl monoxime, A465) with purchased enzyme, […] min preincubation.

T1 sequence (Q9Y2J8 whole entry): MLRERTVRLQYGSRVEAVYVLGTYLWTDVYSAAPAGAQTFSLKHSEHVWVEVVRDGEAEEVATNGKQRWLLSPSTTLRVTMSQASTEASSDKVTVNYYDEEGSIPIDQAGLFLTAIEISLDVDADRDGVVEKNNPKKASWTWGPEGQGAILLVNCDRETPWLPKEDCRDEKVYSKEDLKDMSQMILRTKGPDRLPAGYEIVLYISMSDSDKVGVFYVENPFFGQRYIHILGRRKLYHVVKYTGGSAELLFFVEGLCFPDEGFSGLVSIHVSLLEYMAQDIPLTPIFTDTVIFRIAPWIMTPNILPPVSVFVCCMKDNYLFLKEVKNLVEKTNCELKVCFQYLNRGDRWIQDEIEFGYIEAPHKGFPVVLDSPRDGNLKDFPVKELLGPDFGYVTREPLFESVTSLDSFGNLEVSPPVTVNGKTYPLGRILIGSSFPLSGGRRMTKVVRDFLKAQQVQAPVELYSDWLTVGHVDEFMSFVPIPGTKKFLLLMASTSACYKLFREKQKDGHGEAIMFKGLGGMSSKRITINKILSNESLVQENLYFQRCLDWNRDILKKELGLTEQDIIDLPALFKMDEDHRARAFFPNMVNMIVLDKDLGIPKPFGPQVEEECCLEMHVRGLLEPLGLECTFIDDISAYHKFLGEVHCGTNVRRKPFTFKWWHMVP

On to `CN(C)c1ccc2cc(C(=O)N[C@@H](CCCNC(=N)CCl)C(=O)NCc3ccccc3)ccc2c1` [YW3-56], for which the IC50 at PAD2 was determined as 6340 nM; on PAD3 it was 53400 nM; on mouse PAD4, 2540 nM; on PAD1, 1450 nM; at human PAD4, 1190 nM.

For orientation: IC50 means the point on the concentration scale where inhibition reaches its midpoint.
